# Assay results published in ChEMBL document CHEMBL1201862, “PubChem BioAssay data set” (2004).
#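 Step 1: Grow cells in 96-well plates. Step 2: Expose to compound for 48 hours at 5 concentrations. Step 3: Interpolate endpoints linearly; if unreached, use highest concentration. At the GI50, growth is halved.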 Calls of active or inactive are those of the source. Rule as the data show it: active = GI50 up to about 1.1 µM and inactive = higher.
# Experiments:
# Experiment in all cases: inhibition of tumour cell growth, NCI panel, 48 h
# SW-620 = tested on: SW-620
# NCI-H522 = tested on: NCI-H522
# NCI-H23 = tested on: NCI-H23
# U-251 = tested on: U-251
# DU-145 = tested on: DU-145
# UACC-257 = tested on: UACC-257
# MCF7 = tested on: MCF7
# CCRF-CEM = tested on: CCRF-CEM
# SK-OV-3 = tested on: SK-OV-3
# SF-295 = tested on: SF-295
# NCI/ADR-RES = tested on: NCI/ADR-RES
# OVCAR-3 = tested on: OVCAR-3
# HCC 2998 = tested on: HCC 2998
# A498 = tested on: A498
# OVCAR-4 = tested on: OVCAR-4
# UACC-62 = tested on: UACC-62
# TK-10 = tested on: TK-10
# HT-29 = tested on: HT-29
# Hs-578T = tested on: Hs-578T
# MOLT-4 = tested on: MOLT-4
# K562 = tested on: K562
# ACHN = tested on: ACHN
# RXF 393 = tested on: RXF 393
# MDA-N = tested on: MDA-N
# 786-0 = tested on: 786-0
# SK-MEL-28 = tested on: SK-MEL-28
# PC-3 = tested on: PC-3
# OVCAR-5 = tested on: OVCAR-5
# HCT-116 = tested on: HCT-116
# NCI-H226 = tested on: NCI-H226
# SK-MEL-5 = tested on: SK-MEL-5
# UO-31 = tested on: UO-31
# SR = tested on: SR
# BT-549 = tested on: BT-549
# SF-268 = tested on: SF-268
# HL-60 = tested on: HL-60
# M14 = tested on: M14
# COLO 205 = tested on: COLO 205
# OVCAR-8 = tested on: OVCAR-8
# SN12C = tested on: SN12C
# MDA-MB-435 = tested on: MDA-MB-435
# A549 = tested on: A549
# HOP-62 = tested on: HOP-62
# SNB-19 = tested on: SNB-19
# IGROV-1 = tested on: IGROV-1
# RPMI-8226 = tested on: RPMI-8226
# SF-539 = tested on: SF-539
# NCI-H460 = tested on: NCI-H460
# EKVX = tested on: EKVX
# SK-MEL-2 = tested on: SK-MEL-2
# KM12 = tested on: KM12
# MDA-MB-231 = tested on: MDA-MB-231
# CAKI-1 = tested on: CAKI-1
# HOP-92 = tested on: HOP-92
# HCT-15 = tested on: HCT-15
# T47D = tested on: T47D
# SNB-75 = tested on: SNB-75
# LOX IMVI = tested on: LOX IMVI
# Malme-3M = tested on: Malme-3M
smiles,measurement,setting,value
CCOC(=O)NNC1(SC)NC(=O)c2c(cc(Cl)oc2=O)O1 (stereo not given),GI50,SW-620,3.31 µM (inactive)
same,GI50,NCI-H522,2.12 µM (inactive)
same,GI50,NCI-H23,3.61 µM (inactive)
same,GI50,U-251,10.8 µM (inactive)
same,GI50,DU-145,4.17 µM (inactive)
same,GI50,UACC-257,7.26 µM (inactive)
same,GI50,MCF7,1.91 µM (inactive)
same,GI50,CCRF-CEM,2.34 µM (inactive)
same,GI50,SK-OV-3,8.02 µM (inactive)
same,GI50,SF-295,12.4 µM (inactive)
same,GI50,NCI/ADR-RES,6.84 µM (inactive)
same,GI50,OVCAR-3,2.84 µM (inactive)
same,GI50,HCC 2998,4.29 µM (inactive)
same,GI50,A498,14.2 µM (inactive)
same,GI50,OVCAR-4,6.17 µM (inactive)
same,GI50,UACC-62,5.97 µM (inactive)
same,GI50,TK-10,3.55 µM (inactive)
same,GI50,HT-29,2.19 µM (inactive)
same,GI50,Hs-578T,5.64 µM (inactive)
same,GI50,MOLT-4,2.67 µM (inactive)
same,GI50,K562,1.62 µM (inactive)
same,GI50,ACHN,1.87 µM (inactive)
same,GI50,RXF 393,3.14 µM (inactive)
same,GI50,MDA-N,2.58 µM (inactive)
same,GI50,786-0,1.92 µM (inactive)
same,GI50,SK-MEL-28,3.08 µM (inactive)
same,GI50,PC-3,3.4 µM (inactive)
same,GI50,OVCAR-5,11.5 µM (inactive)
same,GI50,HCT-116,1.46 µM (inactive)
same,GI50,NCI-H226,20.9 µM (inactive)
same,GI50,SK-MEL-5,5.16 µM (inactive)
same,GI50,UO-31,1.72 µM (inactive)
same,GI50,SR,2.36 µM (inactive)
same,GI50,BT-549,4.37 µM (inactive)
same,GI50,SF-268,3.49 µM (inactive)
same,GI50,HL-60,1.9 µM (inactive)
same,GI50,M14,3.37 µM (inactive)
same,GI50,COLO 205,6.93 µM (inactive)
same,GI50,OVCAR-8,2.07 µM (inactive)
same,GI50,SN12C,3.21 µM (inactive)
same,GI50,MDA-MB-435,4.83 µM (inactive)
same,GI50,A549,8.11 µM (inactive)
same,GI50,HOP-62,11.3 µM (inactive)
same,GI50,SNB-19,11.5 µM (inactive)
same,GI50,IGROV-1,3.87 µM (inactive)
same,GI50,RPMI-8226,2.84 µM (inactive)
same,GI50,SF-539,1.79 µM (inactive)
same,GI50,NCI-H460,8 µM (inactive)
same,GI50,EKVX,6.85 µM (inactive)
same,GI50,SK-MEL-2,7.73 µM (inactive)
same,GI50,KM12,10.4 µM (inactive)
same,GI50,MDA-MB-231,8.41 µM (inactive)
same,GI50,CAKI-1,2.72 µM (inactive)
same,GI50,HOP-92,1.96 µM (inactive)
same,GI50,HCT-15,2.17 µM
same,GI50,T47D,6.85 µM (inactive)
same,GI50,SNB-75,9.84 µM (inactive)
same,GI50,LOX IMVI,2.06 µM (inactive)
CC(N1CCOCC1)C(O)(c1ccccc1)c1ccccn1 (stereo not given),GI50,SW-620,> 100 µM (inactive)
same,GI50,NCI-H522,> 100 µM (inactive)
same,GI50,NCI-H23,> 100 µM (inactive)
same,GI50,U-251,> 100 µM (inactive)
same,GI50,DU-145,> 100 µM (inactive)
same,GI50,UACC-257,> 100 µM (inactive)
same,GI50,MCF7,41 µM (inactive)
same,GI50,SK-OV-3,> 100 µM (inactive)
same,GI50,SF-295,> 100 µM (inactive)
same,GI50,NCI/ADR-RES,> 100 µM (inactive)
same,GI50,OVCAR-3,> 100 µM (inactive)
same,GI50,HCC 2998,0.0192 µM (active)
same,GI50,Malme-3M,> 100 µM (inactive)
same,GI50,A498,38.8 µM (inactive)
same,GI50,OVCAR-4,> 100 µM (inactive)
same,GI50,UACC-62,37.8 µM (inactive)
same,GI50,TK-10,> 100 µM (inactive)
same,GI50,HT-29,> 100 µM (inactive)
same,GI50,Hs-578T,> 100 µM (inactive)
same,GI50,K562,> 100 µM (inactive)
same,GI50,ACHN,52.8 µM (inactive)
same,GI50,RXF 393,> 100 µM (inactive)
same,GI50,MDA-N,> 100 µM (inactive)
same,GI50,786-0,> 100 µM (inactive)
same,GI50,SK-MEL-28,> 100 µM (inactive)
same,GI50,PC-3,> 100 µM (inactive)
same,GI50,OVCAR-5,> 100 µM (inactive)
same,GI50,HCT-116,> 100 µM (inactive)
same,GI50,NCI-H226,> 100 µM (inactive)
same,GI50,SK-MEL-5,> 100 µM (inactive)
same,GI50,UO-31,> 100 µM (inactive)
same,GI50,SR,> 100 µM (inactive)
same,GI50,BT-549,> 100 µM (inactive)
same,GI50,SF-268,> 100 µM (inactive)
same,GI50,HL-60,44.9 µM (inactive)
same,GI50,M14,> 100 µM (inactive)
same,GI50,COLO 205,> 100 µM (inactive)
same,GI50,OVCAR-8,> 100 µM (inactive)
same,GI50,SN12C,> 100 µM (inactive)
same,GI50,MDA-MB-435,> 100 µM (inactive)
same,GI50,A549,> 100 µM (inactive)
same,GI50,HOP-62,> 100 µM (inactive)
same,GI50,SNB-19,> 100 µM (inactive)
same,GI50,IGROV-1,> 100 µM (inactive)
same,GI50,RPMI-8226,> 100 µM (inactive)
same,GI50,SF-539,> 100 µM (inactive)
same,GI50,NCI-H460,> 100 µM (inactive)
same,GI50,EKVX,> 100 µM (inactive)
same,GI50,SK-MEL-2,> 100 µM (inactive)
same,GI50,KM12,> 100 µM (inactive)
same,GI50,MDA-MB-231,> 100 µM (inactive)
same,GI50,CAKI-1,> 100 µM (inactive)
same,GI50,HOP-92,> 100 µM (inactive)
same,GI50,HCT-15,> 100 µM
same,GI50,T47D,> 100 µM (inactive)
same,GI50,SNB-75,> 100 µM (inactive)
same,GI50,LOX IMVI,> 100 µM (inactive)
